From ChEMBL document CHEMBL3588800, “Novel Bioactive Hybrid Compound Dual Targeting Estrogen Receptor and Histone Deacetylase for the Treatment of Breast Cancer” (J Med Chem, 2015)

Legend:
MCF7 = test: cells; type: functional, cell-based; details: Homo sapiens, MCF7, 72 h
[1] = biological target: T1, Estrogen receptor (Homo sapiens) (UniProt P03372); test: Antagonist activity at ER-alpha (unknown origin) transfected in HEK293T cells assessed as inhibition of transcriptional activity after 24 hrs by luciferase reporter gene assay relative to 17-beta estradiol; type: cell-based; details: HEK-293T
T1 sequence (whole entry): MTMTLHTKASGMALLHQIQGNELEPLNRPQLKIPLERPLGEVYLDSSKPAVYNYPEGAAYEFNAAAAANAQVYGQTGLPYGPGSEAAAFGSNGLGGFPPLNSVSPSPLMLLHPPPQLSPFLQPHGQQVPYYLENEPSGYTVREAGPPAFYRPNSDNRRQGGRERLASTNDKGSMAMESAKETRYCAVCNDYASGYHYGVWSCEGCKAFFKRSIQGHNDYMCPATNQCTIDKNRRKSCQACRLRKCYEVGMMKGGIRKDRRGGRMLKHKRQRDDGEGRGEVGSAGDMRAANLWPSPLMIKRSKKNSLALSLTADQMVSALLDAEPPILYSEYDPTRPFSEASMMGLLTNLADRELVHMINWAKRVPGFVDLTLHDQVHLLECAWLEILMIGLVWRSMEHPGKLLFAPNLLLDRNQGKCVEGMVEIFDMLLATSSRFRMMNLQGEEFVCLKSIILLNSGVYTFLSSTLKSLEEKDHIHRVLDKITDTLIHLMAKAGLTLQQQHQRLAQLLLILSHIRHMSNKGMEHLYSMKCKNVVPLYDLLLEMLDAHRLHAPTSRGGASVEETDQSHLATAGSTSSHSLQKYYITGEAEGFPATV

Estrogen receptor beta [2] = biological target: T2, Estrogen receptor beta (Homo sapiens, UniProt Q92731); test: Antagonist activity at ER-beta (unknown origin) transfected in HEK293T cells assessed as inhibition of transcriptional activity after 24 hrs by luciferase reporter gene assay relative to 17-beta estradiol; type: cell-based; details: HEK-293T
T2 sequence (Q92731 whole entry): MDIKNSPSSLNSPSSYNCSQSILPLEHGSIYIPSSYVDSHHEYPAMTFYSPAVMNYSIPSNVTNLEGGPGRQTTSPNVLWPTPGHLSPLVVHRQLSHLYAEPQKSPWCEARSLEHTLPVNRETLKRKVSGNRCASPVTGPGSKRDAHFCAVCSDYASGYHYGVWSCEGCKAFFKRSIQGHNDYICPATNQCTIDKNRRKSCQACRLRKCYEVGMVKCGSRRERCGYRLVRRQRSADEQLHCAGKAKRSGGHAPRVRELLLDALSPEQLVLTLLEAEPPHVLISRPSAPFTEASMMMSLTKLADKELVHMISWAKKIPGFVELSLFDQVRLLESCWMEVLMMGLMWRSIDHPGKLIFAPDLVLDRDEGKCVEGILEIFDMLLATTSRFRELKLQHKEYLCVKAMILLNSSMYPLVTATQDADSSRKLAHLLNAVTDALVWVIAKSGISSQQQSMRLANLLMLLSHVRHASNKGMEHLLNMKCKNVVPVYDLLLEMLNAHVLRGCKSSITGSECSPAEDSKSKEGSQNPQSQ

Histone deacetylase 1 = Histone deacetylase 1 (Homo sapiens, UniProt Q13547); test: Inhibition of human recombinant HDAC1 after 15 mins by fluorogenic assay; details: read-out: IC50
Histone deacetylase 1, sequence (Q13547 whole entry): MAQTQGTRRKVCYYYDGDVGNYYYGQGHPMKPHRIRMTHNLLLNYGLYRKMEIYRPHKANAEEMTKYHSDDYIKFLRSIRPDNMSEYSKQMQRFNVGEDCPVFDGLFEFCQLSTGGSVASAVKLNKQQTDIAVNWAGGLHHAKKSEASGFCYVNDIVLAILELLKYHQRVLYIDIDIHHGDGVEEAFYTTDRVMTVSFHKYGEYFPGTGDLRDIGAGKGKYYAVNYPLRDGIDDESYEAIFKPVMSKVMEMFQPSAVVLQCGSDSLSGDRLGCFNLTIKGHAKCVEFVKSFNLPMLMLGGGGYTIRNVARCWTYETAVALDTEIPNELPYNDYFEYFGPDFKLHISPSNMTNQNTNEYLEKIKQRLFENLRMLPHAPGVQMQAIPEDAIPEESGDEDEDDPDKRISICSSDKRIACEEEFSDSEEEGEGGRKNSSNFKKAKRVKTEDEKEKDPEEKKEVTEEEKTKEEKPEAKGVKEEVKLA

[3] = biological target: T3, Protein deacetylase HDAC6 (Homo sapiens, UniProt Q9UBN7); test: Inhibition of human recombinant HDAC6 after 15 mins by fluorogenic assay; details: read-out: IC50
T3 sequence (Q9UBN7 whole entry): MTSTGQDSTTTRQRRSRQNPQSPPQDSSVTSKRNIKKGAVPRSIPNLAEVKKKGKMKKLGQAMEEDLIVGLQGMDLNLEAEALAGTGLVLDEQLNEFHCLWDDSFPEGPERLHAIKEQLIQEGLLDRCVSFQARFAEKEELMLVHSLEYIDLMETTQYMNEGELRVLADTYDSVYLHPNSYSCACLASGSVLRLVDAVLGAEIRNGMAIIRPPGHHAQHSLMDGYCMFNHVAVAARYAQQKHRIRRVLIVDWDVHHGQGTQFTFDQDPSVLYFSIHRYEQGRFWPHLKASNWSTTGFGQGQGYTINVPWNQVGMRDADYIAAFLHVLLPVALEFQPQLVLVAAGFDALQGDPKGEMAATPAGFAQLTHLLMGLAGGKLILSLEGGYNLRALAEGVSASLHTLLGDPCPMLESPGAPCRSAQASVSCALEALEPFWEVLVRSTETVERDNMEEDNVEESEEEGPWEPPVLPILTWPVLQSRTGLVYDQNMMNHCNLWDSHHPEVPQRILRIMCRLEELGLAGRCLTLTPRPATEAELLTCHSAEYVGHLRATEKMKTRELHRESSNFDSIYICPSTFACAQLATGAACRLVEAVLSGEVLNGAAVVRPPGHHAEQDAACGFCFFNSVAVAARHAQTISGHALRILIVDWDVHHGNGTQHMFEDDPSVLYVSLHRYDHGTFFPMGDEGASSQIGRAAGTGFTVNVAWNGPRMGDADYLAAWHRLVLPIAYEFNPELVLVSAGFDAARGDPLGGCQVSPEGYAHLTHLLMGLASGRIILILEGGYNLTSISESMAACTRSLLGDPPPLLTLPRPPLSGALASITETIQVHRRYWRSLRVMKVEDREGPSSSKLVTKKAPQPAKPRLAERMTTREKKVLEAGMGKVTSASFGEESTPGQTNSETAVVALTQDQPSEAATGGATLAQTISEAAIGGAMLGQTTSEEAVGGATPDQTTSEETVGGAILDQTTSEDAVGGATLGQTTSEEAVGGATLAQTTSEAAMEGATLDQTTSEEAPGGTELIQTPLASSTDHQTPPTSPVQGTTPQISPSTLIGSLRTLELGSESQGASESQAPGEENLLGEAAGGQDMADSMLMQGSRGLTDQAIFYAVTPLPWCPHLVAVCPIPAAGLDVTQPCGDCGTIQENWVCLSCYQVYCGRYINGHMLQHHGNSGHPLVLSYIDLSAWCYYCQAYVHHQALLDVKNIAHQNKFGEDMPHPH

[4] = biological target: T1, Estrogen receptor (Homo sapiens); test: Agonist activity at ER-alpha (unknown origin) transfected in HEK293T cells assessed as stimulation of transcriptional activity after 24 hrs by luciferase reporter gene assay relative to 17-beta estradiol; type: cell-based; details: HEK-293T
Estrogen receptor beta [5] = biological target: T2, Estrogen receptor beta; test: Agonist activity at ER-beta (unknown origin) transfected in HEK293T cells assessed as stimulation of transcriptional activity after 24 hrs by luciferase reporter gene assay relative to 17-beta estradiol; type: cell-based; details: HEK-293T
Estrogen receptor beta [6] = biological target: T2, Estrogen receptor beta; test: Antagonist activity at ER-beta (unknown origin) transfected in HEK293T cells assessed as inhibition of transcriptional activity after 24 hrs by luciferase reporter gene assay; type: cell-based, HEK-293T
Vero = test: cells; type: ADME, cell-based; details: Chlorocebus sabaeus, 72 h
Estrogen receptor [7] = biological target: T4, Estrogen receptor (Homo sapiens, UniProt P03372); test: Antagonist activity at ER-alpha (unknown origin) transfected in HEK293T cells assessed as inhibition of transcriptional activity after 24 hrs by luciferase reporter gene assay; type: cell-based, HEK-293T
T4 sequence (P03372 whole entry): T1 sequence (whole entry)

DU-145 = test: cells; type: functional, cell-based; details: Homo sapiens, DU-145, 72 h
Estrogen receptor beta [8] = biological target: T2, Estrogen receptor beta; test: Binding affinity to human ER-beta ligand binding domain after 2 hrs by competitive fluorometric binding assay
Estrogen receptor beta [9] = biological target: T2, Estrogen receptor beta; test: Agonist activity at ER-beta (unknown origin) transfected in HEK293T cells assessed as stimulation of transcriptional activity after 24 hrs by luciferase reporter gene assay; type: cell-based, HEK-293T
Estrogen receptor [10] = biological target: T4, Estrogen receptor; test: Binding affinity to human ER-alpha ligand binding domain after 2 hrs by competitive fluorometric binding assay
Estrogen receptor [11] = biological target: T4, Estrogen receptor; test: Agonist activity at ER-alpha (unknown origin) transfected in HEK293T cells assessed as stimulation of transcriptional activity after 24 hrs by luciferase reporter gene assay; type: cell-based, HEK-293T
[12] = Therapeutic index, ratio of IC50 for african green monkey Vero cells to IC50 for human MCF7 cells

IC50 (MCF7) [nM]	Efficacy [1] [%]	Efficacy (Estrogen receptor beta [2]) [%]	IC50 (Histone deacetylase 1) [nM]	IC50 [3] [nM]	Efficacy [4] [%]	Efficacy (Estrogen receptor beta [5]) [%]	IC50 (Estrogen receptor beta [6]) [nM]	IC50 (Estrogen receptor [7]) [nM]	IC50 (DU-145) [nM]	Ki (Estrogen receptor beta [8]) [nM]	EC50 (Estrogen receptor beta [9]) [nM]	Ki (Estrogen receptor [10]) [nM]	EC50 (Estrogen receptor [11]) [nM]	Structure (SMILES)	IC50 (Vero) [nM]	selectivity ratio [12]
19100	25	89	107	8340	-10	-5	160	50	34800	–	–	–	–	O=C(O)CCCCCCC(=O)Nc1ccc(OS(=O)(=O)C2CC3OC2C(c2ccc(O)cc2)=C3c2ccc(O)cc2)cc1 (stereo unspecified)	> 100000	–
22900	115	48	–	–	38	29	613	–	32200	> 5000	54	4430	–	Cc1cccc(OS(=O)(=O)C2CC3OC2C(c2ccc(NC(=O)CCCCCCC(=O)NO)cc2)=C3c2ccc(O)cc2)c1 (racemic)	> 100000	–
3300	93	188	241	1460	149	44	–	–	> 100000	200	580	126	790	O=C(O)CCCCCCC(=O)Nc1ccc(C2=C(c3ccc(O)cc3)C3CC(S(=O)(=O)Oc4ccc(Cl)cc4)C2O3)cc1 (racemic)	> 100000	> 30.3
24800	99	85	–	–	38	-13	280	–	> 100000	–	–	–	18000	O=C(O)CCCCCCC(=O)Nc1ccc(C2=C(c3ccc(O)cc3)C3CC(S(=O)(=O)Oc4ccc(F)cc4)C2O3)cc1 (racemic)	> 100000	–
8100	10	76	534	1580	-35	4	330	10800	20400	756	–	59.9	–	COC(=O)CCCCCCC(=O)Nc1ccc(OS(=O)(=O)C2CC3OC2C(c2ccc(O)cc2)=C3c2ccc(O)cc2)cc1 (stereo unspecified)	> 100000	> 12.3
17900	87	100	–	–	67	100	–	–	53800	81.5	1100	4430	1160	COc1cccc(OS(=O)(=O)C2CC3OC2C(c2ccc(NC(=O)CCCCCCC(=O)O)cc2)=C3c2ccc(O)cc2)c1 (racemic)	> 100000	> 5.59
> 100000	99	23	–	–	79	69	11700	–	> 100000	39	13400	133	2420	O=C(O)CCCCCCC(=O)Nc1ccc(C2=C(c3ccc(O)cc3)C3CC(S(=O)(=O)Oc4ccc(O)cc4)C2O3)cc1 (racemic)	> 100000	–
> 100000	104	78	–	–	84	65	290	–	> 100000	95.2	1800	159	16	COc1ccccc1OS(=O)(=O)C1CC2OC1C(c1ccc(NC(=O)CCCCCCC(=O)O)cc1)=C2c1ccc(O)cc1 (racemic)	> 100000	–
> 100000	75	77	–	–	-36	-3	250	1700	> 100000	60.5	–	126	–	O=C(O)CCCCCCC(=O)Nc1ccc(C2=C(c3ccc(O)cc3)C3CC(S(=O)(=O)Oc4ccc(Br)cc4)C2O3)cc1 (racemic)	> 100000	–
32200	-26	19	349	322	13	-17	7700	160	12400	102	–	307	–	O=C(CCCCCCC(=O)Nc1ccc(C2=C(c3ccc(O)cc3)C3CC(S(=O)(=O)Oc4ccc5ccccc5c4)C2O3)cc1)NO (stereo unspecified)	> 100000	–
55200	104	-27	583	189	-15	3	1140	–	42300	127	–	148	–	O=C(CCCCCCC(=O)Nc1ccc(OS(=O)(=O)C2CC3OC2C(c2ccc(O)cc2)=C3c2ccc(O)cc2)cc1)NO (stereo unspecified)	> 100000	–
